Test results published in US20210221785A1, “AMINO-PYRIMIDONYL DERIVATIVES, A PROCESS FOR THEIR PREPARATION AND PHARMACEUTICAL COMPOSITIONS CONTAINING THEM” (LES LABORATOIRES SERVIER, priority 2018, published 2021).

Key:
[1] = target: T1, His-His-USP7 (aa208-560, |C315A|) (Homo sapiens, UniProt Q93009, C315A); assay: Evaluation of the inhibition of USP7 by the Fluorescence Intensity (FLINT) readings; format: biochemical; conditions: 0.25 nM His-His-USP7, compound incubated 60 minutes at 30° C., 500 nM Ubiquitin-Rhodamine-110 substrate; 50% reduction in kinetic rate
T1 construct: His-His-USP7 (aa208-560, |C315A|); His-His (N)
T1 sequence (Q93009 208-560 C315A): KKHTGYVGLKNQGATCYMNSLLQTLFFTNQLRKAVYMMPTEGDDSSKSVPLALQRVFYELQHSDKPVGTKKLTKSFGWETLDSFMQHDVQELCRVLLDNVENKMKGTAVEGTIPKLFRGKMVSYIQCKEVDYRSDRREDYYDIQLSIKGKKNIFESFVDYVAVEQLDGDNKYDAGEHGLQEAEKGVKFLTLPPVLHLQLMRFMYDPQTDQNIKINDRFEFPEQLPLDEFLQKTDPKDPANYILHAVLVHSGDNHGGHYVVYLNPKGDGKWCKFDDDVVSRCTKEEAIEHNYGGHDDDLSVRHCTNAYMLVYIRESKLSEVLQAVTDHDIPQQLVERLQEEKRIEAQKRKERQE
Summary of the method: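 0.25 nM His-His-USP7 (aa208–560, C315A) preincubated 60 min at 30 °C with compound in 100 mM Bicine pH 8.0, 0.01% Triton X-100, 1 mM TCEP, 10% DMSO. Reaction started with 500 nM ubiquitin-rhodamine-110 and fluorescence (Ex485/Em535) read every 3 min for 21 min. IC50 derived from kinetic-rate reduction over an 11-point curve, 4-parameter fit.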

[2] = system: Z138 mantle cell lymphoma tumour cell lines; assay: In vitro cytotoxicity, MTT assay; format: cell-based; conditions: Homo sapiens, Z-138, 96 h, Z138 cells exposed to the test compounds for 96 hours; cell viability vs DMSO treated cells
Summary of the method: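 Z138 cells exposed to compounds for 96 hours, then MTT added for 4 hours. Viable cells quantified from formazan absorbance at 540 nm.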

| Structure (SMILES) | IC50 [1] [nM] | IC50 [2] [µM] |
| --- | --- | --- |
| Nc1c(Oc2cccc(O)c2)ncn(CC2(O)CCN(C(=O)[C@@H]3CCC(F)(F)C[C@H]3c3ccccc3)CC2)c1=O [Example 64, 5-amino-3-({1-[(1R,2R)-4,4-difluoro-2-phenylcyclohexnne-1-carbonyl]-4-hydroxypiperidin-4-yl}methyl)-6-(3-hydroxyphenoxy)pyrimidin-4(3H)-one] | 21 | 0.014 |
| Nc1c(Oc2ccc(F)cc2)ncn(CC2(O)CCN(C(=O)[C@@H]3CC[C@@](F)(C#Cc4ncccn4)C[C@H]3c3ccccc3)CC2)c1=O [Example 142, 5-amino-3-[(1-{[(1R,2R,4S)-4-fluoro-2-phenyl-4-[2-(pyrimidin-2-yl)ethynyl]cyclohexyl]carbonyl}-4-hydroxypiperidin-4-yl)methyl]-6-(4-fluorophenoxy)pyrimidin-4-one] | 58.8 | 0.0176 |
| Nc1c(Oc2ccc(OCCO)cc2)ncn(CC2(O)CCN(C(=O)[C@@H]3CCC(F)(F)C[C@H]3c3ccccc3)CC2)c1=O [Example 33, 5-amino-3-({1-[(1R,2R)-4,4-difluoro-2-phenylcyclohexane-1-carbonyl]-4-hydroxypiperidin-4-yl}methyl)-6-[4-(2-hydroxyethoxy)phenoxy]pyrimidin-4(3H)-one] | 45.9 | 0.0646 |
| CO[C@@H]1CC[C@@](C#Cc2cc(C)cnn2)(C(=O)N2CC[C@](O)(Cn3cnc(Oc4ccc(F)cc4)c(N)c3=O)C(F)(F)C2)[C@@H](c2ccccc2)C1 [Example 169, 5-amino-3-{[(4S)-3,3-difluoro-4-hydroxy-1-[(1R,2R,4R)-4-methoxy-1-[2-(5-methylpyridazin-3-yl)ethynyl]-2-phenylcyclohexanecarbonyl]piperidin-4-yl]methyl}-6-(4-fluorophenoxy)-3,4-dihydropyrimidin-4-one] | 8.8 | 0.00218 |
| CO[C@]1(C#Cc2cncnc2)CC[C@@H](C(=O)N2CC[C@](O)(Cn3cnc(Oc4ccc(F)cc4)c(N)c3=O)C(F)(F)C2)[C@H](c2ccccc2)C1 [Example 175, 5-amino-3-{[(4S)-3,3-difluoro-4-hydroxy-1-[(1R,2R,4R)-4-methoxy-2-phenyl-4-[2-(pyrimidin-5-yl)ethynyl]cyclohexanecarbonyl]piperidin-4-yl]methyl}-6-(4-fluorophenoxy)-3,4-dihydropyrimidin-4-one] | 54 | 0.00998 |
| Nc1c(Oc2cccc(Br)c2)ncn(CC2(O)CCN(C(=O)[C@@H]3CCC(F)(F)C[C@H]3c3ccccc3)CC2)c1=O [Example 20, 5-amino-6-(3-bromophenoxy)-3-([1-{(1R,2R)-4,4-difluoro-2-phenylcyclohexane-1-carbonyl]-4-hydroxypiperidin-4-yl}methyl)pyrimidin-4(3H)-one] | 105 | 0.146 |
| Nc1c(Oc2ccc(F)cc2)ncn(CC2(O)CCN(C(=O)[C@@H]3CCC(F)(F)C[C@H]3c3ccsc3)CC2)c1=O [Example 89, 5-amino-3-({1-[(1R,2R)-4,4-difluoro-2-(thiophen-3-yl)cyclohexane-1-carbonyl]-4-hydroxypiperidin-4-yl}methyl)-6-(4-fluorophenoxy)pyrimidin-4(3H)-one] | 92 | 0.055 |
| Nc1cc(Oc2ncn(CC3(O)CCN(C(=O)[C@@H]4CCC(F)(F)C[C@H]4c4ccccc4)CC3)c(=O)c2N)ccc1F [Example 119, 5-amino-6-(3-amino-4-fluorophenoxy)-3-({1-[(1R,2R)-4,4-difluoro-2-phenylcyclohexane-1-carbonyl]-4-hydroxypiperidin-4-yl}methyl)pyrimidin-4(3H)-one] | 38 | 0.0613 |
| C#C[C@]1(O)CC[C@@H](C(=O)N2CCC(O)(Cn3cnc(Oc4ccc(F)cc4)c(N)c3=O)CC2)[C@H](c2ccccc2)C1 (relative stereo) [Example 92, rel-5-amino-3-[(1-{[(1R,2R,4S)-4-ethynyl-4-hydroxy-2-phenyl-cyclohexyl]carbonyl}-4-hydroxypiperidin-4-yl)methyl]-6-(4-fluorophenoxy)pyrimidin-4-one] | 230 | 0.189 |
| CO[C@]1(C#Cc2cncnc2)CC[C@@H](C(=O)N2CCC(O)(Cn3cnc(Oc4ccc(F)cc4)c(N)c3=O)CC2)[C@H](c2ccccc2)C1 [Example 139, 5-amino-6-(4-fluorophenoxy)-3-[(4-hydroxy-1{[(1R, 2R,4R)-4-methoxy-2-phenyl-4-[2-(pyrimidin-5-yl)ethynyl]cyclohexyl]carbonyl}piperidin-4-yl)methyl]pyrimidin-4-one] | 49.7 | 0.0291 |
| Cc1cnc(C#C[C@]2(F)CC[C@@H](C(=O)N3CCC(O)(Cn4cnc(Oc5ccc(F)cc5)c(N)c4=O)CC3)[C@H](c3ccccc3)C2)cn1 [Example 151, 5-amino-3-({1-[(1R,2R,4S)-4-fluoro-4-[2-(5-methylpyrazin-2-yl)ethynyl]-2-phenylcyclohexanecarbonyl]-4-hydroxypiperidin-4-yl}methyl)-6-(4-fluorophenoxy)-3,4-dihydropyrimidin-4-one] | 11.4 | 0.0191 |
| Cn1ccnc1C#C[C@]1(F)CC[C@@H](C(=O)N2CCC(O)(Cn3cnc(Oc4ccc(F)cc4)c(N)c3=O)CC2)[C@H](c2ccccc2)C1 [Example 152] | 30.3 | 0.268 |

The remaining compounds from weak to strong by IC50 [1], led by results:

| IC50 [1] [nM] | Structure (SMILES) | IC50 [2] [µM] |
| --- | --- | --- |
| 89.7 | CCc1cc(Oc2ncn(CC3(O)CCN(C(=O)[C@@H]4CCC(F)(F)C[C@H]4c4ccccc4)CC3)c(=O)c2N)ccc1Cl [Example 42, 5-amino-6-(4-chloro-3-ethylphenoxy)-3-({1-[(1R,2R)-4,4-difluoro-2-phenylcyclohexane-1-carbonyl]-4-hydroxypiperidin-4-yl}methyl)pyrimidin-4(3H)-one] | 0.169 |
| 85.8 | CNc1c(Oc2ccccc2)ncn(CC2(O)CCN(C(=O)[C@@H]3CCC(F)(F)C[C@H]3c3ccccc3)CC2)c1=O [Example 9, 3-({1-[(1R4R)-4,4-difluoro-2-phenylcyclohexane-1-carbonyl]-4-hydroxypiperidin-4-yl}methyl)-5-(methylamino)-6-phenoxypyrimidin-4(3H)-one] | 0.287 |
| 71.8 | Nc1c(Oc2ccc3c(c2)OCO3)ncn(CC2(O)CCN(C(=O)[C@@H]3CCC(F)(F)C[C@H]3c3ccccc3)CC2)c1=O [Example 14] | 0.0413 |
| 53 | Nc1c(Oc2cccc(CO)c2)ncn(CC2(O)CCN(C(=O)[C@@H]3CCC(F)(F)C[C@H]3c3ccccc3)CC2)c1=O [Example 28, 5-amino-3-({1-[(1R,2R)-4,4-difluoro-2-phenylcyclohexane-1-carbonyl]-4-hydroxypiperidin-4-yl}methyl)-6-[3-(hydroxymethyl)phenoxy]pyrimidin-4(3H)-one] | 0.052 |
| 37.1 | Nc1c(Oc2ccc(F)cc2)ncn(CC2(O)CCN(C(=O)[C@@H]3CC[C@](F)(C#Cc4nccnc4Cl)C[C@H]3c3ccccc3)CC2)c1=O [Example 153, 5-amino-3-({1-[(1R,2R,4R)-4-[2-(3-chloropyrazin-2-yl)ethynyl]-4-fluoro-2-phenylcyclohexanecarbonyl]-4-hydroxypiperidin-4-yl}methyl)-6-(4-fluorophenoxy)-3,4-dihydropyrimidin-4-one] | 0.0175 |
| 30 | N#Cc1ccc(Oc2ncn(CC3(O)CCN(C(=O)[C@@H]4CCC(F)(F)C[C@H]4c4ccccc4)CC3)c(=O)c2N)cc1 [Example 24, 4-{[5-amino-1-({1-[(1R,2R)-4,4-difluoro-2-phenylcyclohexane-1-carbonyl]-4-hydroxypiperidin-4-yl}methyl)-6-oxo-1,6-dihydropyrimidin-4-yl]oxy}benzonitrile] | 0.165 |
